Measurements reported in patent publication US8431528B2, “Antibacterial Lactobacillus GG peptides and methods of use” (priority 2008, dated 2013).
Like-named read-outs stand apart in the source and are kept apart here. Ends that are not written are not given here.

Assays:
[1] = test system: methicillin-resistant Staphylococcus aureus (MRSA); assay type: cell-based; details: MRSA growth (FIG. 11)
Excerpt: LGG CM (19.7×10^12 CFU/ML) as positive control.

[2] = test system: E. coli EAEC 042; assay type: cell-based; details: EAEC 042, 3 h
Protocol: FIGS. 6A-6B show: EAEC 042 growth time-course (FIG. 6A). Ten microliters of E. coli (2.16×10^14 CFU/mL) were added in 1 mL LB broth and incubated in 37° C., shaking at 225 rpm, measuring A600 every 30 minutes. […] Ten microliters of EAEC 042 (7.7×10^12CFU/mL) were added to 1 mL LB broth mixed, and 100 mL of each peptide solution dissolved in MRS was added to the mixture. MRS alone (100 mL) and LGG CM (100 mL) (initial concentration 19.7×10^12CFU/mL) were used as negative and positive controls, respectively. The mixture was cultured for 3 hours and the A600 measured at the end of incubation. Also shown is the mean percentage inhibition ±SD. N=3 for all synthetic peptides tested. N=7 for LGG CM.
The assay was performed as described (12), with minor modifications. Briefly, 10 mL E. coli EAEC 042 (7.7×10^14CFU/mL) was added to 1.0 mL LB Broth, mixed, and 100 mL of each LGG-derived synthetic peptide solution dissolved in MRS (for peptide final concentration see FIG. 6B) was added to the mixture. MRS alone (100 mL) and LGG CM 100 mL (LGG concentration: 19.7×10^12 CFU/mL) were used as negative and positive controls, respectively. The mixture was cultured for 3 hours with shaking at 225 rpm, 37° C., measuring A600 at the end.

[3] = test system: Salmonella typhi; assay: Colony-count relative inhibition of Salmonella growth by peptide NPSRQERR; assay type: cell-based; details: S. typhi 38×10^6 CFU/mL; 3 hours, then overnight colony count
[4] = test system: Staphylococcus aureus; assay: Colony-count relative inhibition of Staphylococcus growth by peptide NPSRQERR; assay type: cell-based
[5] = test system: Kanamycine-resistant E. coli SM10_pir; details: Kanamycine-resistant E. coli 2.6×10^13 CFU/ML, 3 hours, A600
Protocol: SM10_pir (2.6×10^13) 10 ml+100 ml peptide (in LB)+900 ml LB, mixed, incubated at 37° C., 225 rpm for 3 hours, at the end, measure A600 and calculation the inhibition rate. […] LGG CM (9.7×10^12 CFU/ML) as positive control.
(§1) SM 10_pir (2.6×10^13CFU) or TOPO10 (8.76×10^13) 10 μl, peptides solution 100 μl and (peptides dissolved in LB broth) were added into 900 ul LB broth, mixed, incubated at 37° C., for 3 hours with shaking at 225 rpm, measure the A600 at the end. Relative inhibition activity was calculated according to the following formula (1−A600 of sample group/A600 of control group)×100%.

[6] = test system: Tetracycline-resistant E. coli TOPO10; details: Tetracycline-resistant E. coli 8.7×10^13 CFU/ML, 3 hours, A600
Protocol: TOPO10 (8.76×10^13) 10 ml+100 ml peptide (in LB)+900 ml LB, mixed, incubated at 37° C., 225 rpm for 3 hours, at the end, measure A600 and calculation the inhibition rate. […] LGG CM (9.7×10^12 CFU/ML) as positive control.
as §1

Substance: NPSRQEFF (peptide sequence SEQ ID NO 1 where residues 7 and 8 are both replaced with Phe for a zero net charge) [variant of NPSRQERR with net positive charge decreased from 2 to 0]
- inhibition activity lost relative to NPSRQERR ([1]; net positive charge decreased from 2 to 0): 12%

Substance: NPSRQERR [NPSRQERR]
- E. coli growth inhibition [2]: 81.4%
- peptide concentration at which 100% inhibition was reached [3]: 8 mmol/L
- peptide concentration at which 100% inhibition was reached ([4]; S. aureus 44×10^6 CFU/mL, 3 hours, then overnight colony count): 64 mmol/L
- effect on S. aureus ([4]; compared with E. coli EAEC 042): less pronounced but dose dependent
- inhibition rate ([5]; peptide 2.76 mM): 43.75%
- inhibition rate ([6]; peptide 2.76 mM): 69.08%

Substance: NPSRQQRR (antibacterial peptide isolated from Lactobacillus GG) [variant of NPSRQERR with net positive charge increased from 2 to 3]
- inhibition activity increased relative to NPSRQERR ([1]; net positive charge increased from 2 to 3): 16.5%

Substance: PDENK [PDENK]
- E. coli growth inhibition [2]: 68.7%
- inhibition rate ([5]; peptide 3.31 mM): 68.54%
- inhibition rate ([6]; peptide 3.31 mM): 81.4%

Substance: VHTAPK [VHTAPK]
- E. coli growth inhibition [2]: 30%
- inhibition rate ([5]; peptide 3.25 mM): 29.45%
- inhibition rate ([6]; peptide 3.25 mM): 48.53%
